# Source: article PMC11012124, “Synthesis of Novel Triazine-Based Chalcones and 8,9-dihydro-7H-pyrimido[4,5-b][1,4]diazepines as Potential Leads in the Search of Anticancer, Antibacterial and Antifungal Agents” (International Journal of Molecular Sciences, 2024)
# Tests used:
# 60 cancer cell lines = experiment: NCI-60 one-dose screen (10 μM); type: cell-based; conditions: Homo sapiens; one dose of 10 μM, mean over 60 cancer cell lines; read-out: Mean Growth Percent (MGP)
# Text: Additionally, the mean of the growth percentages (MGP) of each compound against all the 60 cancer cell lines is also reported, which is used as one of the selection criteria to continue with tests at five concentration doses.
# CCRF-CEM = experiment: cells; conditions: Homo sapiens, 48 h; for CC50: read-out: LC50
# HL-60(TB) = experiment: cells; conditions: Homo sapiens, HL-60, 48 h; for CC50: read-out: LC50
# RPMI-8226 = experiment: cells; conditions: Homo sapiens, RPMI-8226, 48 h; for CC50: read-out: LC50
# A549/ATCC = experiment: cells; conditions: Homo sapiens, A549, 48 h; for CC50: read-out: LC50
# EKVX = experiment: cells; conditions: Homo sapiens, 48 h; for CC50: read-out: LC50
# HOP-62 = experiment: cells; conditions: Homo sapiens, HOP-62, 48 h; for CC50: read-out: LC50
# NCI-H226 = experiment: cells; conditions: Homo sapiens, NCI-H226, 48 h; for CC50: read-out: LC50
# NCI-H23 = experiment: cells; conditions: Homo sapiens, NCI-H23, 48 h; for CC50: read-out: LC50
# NCI-H322M = experiment: cells; conditions: Homo sapiens, 48 h; for CC50: read-out: LC50
# NCI-H460 = experiment: cells; conditions: Homo sapiens, NCI-H460, 48 h; for CC50: read-out: LC50
# COLO 205 = experiment: cells; conditions: Homo sapiens, COLO 205, 48 h; for CC50: read-out: LC50
# HCT-116 = experiment: cells; conditions: Homo sapiens, HCT-116, 48 h; for CC50: read-out: LC50
# HCT-15 = experiment: cells; conditions: Homo sapiens, HCT-15, 48 h; for CC50: read-out: LC50
# KM12 = experiment: cells; conditions: Homo sapiens, KM12, 48 h; for CC50: read-out: LC50
# SW-620 = experiment: cells; conditions: Homo sapiens, SW-620, 48 h; for CC50: read-out: LC50
# SF-268 = experiment: cells; conditions: Homo sapiens, SF-268, 48 h; for CC50: read-out: LC50
# SF-295 = experiment: cells; conditions: Homo sapiens, SF-295, 48 h; for CC50: read-out: LC50
# SNB-19 = experiment: cells; conditions: Homo sapiens, SNB-19, 48 h; for CC50: read-out: LC50
# SNB-75 = experiment: cells; conditions: Homo sapiens, SNB-75, 48 h; for CC50: read-out: LC50
# U251 = experiment: cells; conditions: Homo sapiens, U-251, 48 h; for GI50: U251, 48 h; for CC50: read-out: LC50
# MALME-3M = experiment: cells; conditions: Homo sapiens, 48 h; for CC50: read-out: LC50
# M14 = experiment: cells; conditions: Homo sapiens, M14, 48 h; for CC50: read-out: LC50
# MDA-MB-435 = experiment: cells; conditions: Homo sapiens, MDA-MB-435, 48 h; for CC50: read-out: LC50
# SK-MEL-2 = experiment: cells; conditions: Homo sapiens, SK-MEL-2, 48 h; for CC50: read-out: LC50
# SK-MEL-28 = experiment: cells; conditions: Homo sapiens, SK-MEL-28, 48 h; for CC50: read-out: LC50
# SK-MEL-5 = experiment: cells; conditions: Homo sapiens, SK-MEL-5, 48 h; for CC50: read-out: LC50
# UACC-257 = experiment: cells; conditions: Homo sapiens, UACC-257, 48 h; for CC50: read-out: LC50
# IGROV1 = experiment: cells; conditions: Homo sapiens, IGROV-1, 48 h; for CC50: read-out: LC50
# OVCAR-4 = experiment: cells; conditions: Homo sapiens, OVCAR-4, 48 h; for CC50: read-out: LC50
# OVCAR-5 = experiment: cells; conditions: Homo sapiens, OVCAR-5, 48 h; for CC50: read-out: LC50
# OVCAR-8 = experiment: cells; conditions: Homo sapiens, OVCAR-8, 48 h; for CC50: read-out: LC50
# 786-0 = experiment: cells; conditions: Homo sapiens, 786-0, 48 h; for CC50: read-out: LC50
# ACHN = experiment: cells; conditions: Homo sapiens, 48 h; for CC50: read-out: LC50
# SN12C = experiment: cells; conditions: Homo sapiens, 48 h; for CC50: read-out: LC50
# UO-31 = experiment: cells; conditions: Homo sapiens, UO-31, 48 h; for CC50: read-out: LC50
# BT-549 = experiment: cells; conditions: Homo sapiens, BT-549, 48 h; for CC50: read-out: LC50
compound,measurement,setting,value
CN(C)c1nc(NCCNS(=O)(=O)c2ccc(C3=Nc4c(N)nc(N)nc4NC(c4ccccc4)C3)cc2)nc(Nc2ccc(F)cc2)n1 (centres unmarked) [31a],activity at 10 µM,60 cancer cell lines,40.4%
same,GI50,CCRF-CEM,4.02 µM
same,CC50,CCRF-CEM,> 100 µM
same,GI50,HL-60(TB),4.24 µM
same,CC50,HL-60(TB),> 100 µM
same,GI50,RPMI-8226,3.32 µM
same,CC50,RPMI-8226,> 100 µM
same,GI50,A549/ATCC,> 100 µM
same,CC50,A549/ATCC,> 100 µM
same,GI50,EKVX,6.65 µM
same,CC50,EKVX,> 100 µM
same,GI50,HOP-62,99.7 µM
same,CC50,HOP-62,> 100 µM
same,GI50,NCI-H226,> 100 µM
same,CC50,NCI-H226,> 100 µM
same,GI50,NCI-H23,> 100 µM
same,CC50,NCI-H23,> 100 µM
same,GI50,NCI-H322M,> 100 µM
same,CC50,NCI-H322M,> 100 µM
same,GI50,NCI-H460,6.49 µM
same,CC50,NCI-H460,> 100 µM
same,GI50,COLO 205,16.4 µM
same,CC50,COLO 205,> 100 µM
same,GI50,HCT-116,7.37 µM
same,CC50,HCT-116,> 100 µM
same,GI50,HCT-15,> 100 µM
same,CC50,HCT-15,> 100 µM
same,GI50,KM12,8.8 µM
same,CC50,KM12,> 100 µM
same,GI50,SW-620,40.4 µM
same,CC50,SW-620,> 100 µM
same,GI50,SF-268,9.85 µM
same,CC50,SF-268,> 100 µM
same,GI50,SF-295,9.49 µM
same,CC50,SF-295,> 100 µM
same,GI50,SNB-19,21.8 µM
same,CC50,SNB-19,> 100 µM
same,GI50,SNB-75,3.58 µM
same,CC50,SNB-75,> 100 µM
same,GI50,U251,18.4 µM
same,CC50,U251,> 100 µM
same,GI50,MALME-3M,7.34 µM
same,CC50,MALME-3M,> 100 µM
same,GI50,M14,24.4 µM
same,CC50,M14,> 100 µM
same,GI50,MDA-MB-435,15 µM
same,CC50,MDA-MB-435,> 100 µM
same,GI50,SK-MEL-2,28.5 µM
same,CC50,SK-MEL-2,> 100 µM
same,GI50,SK-MEL-28,> 100 µM
same,CC50,SK-MEL-28,> 100 µM
same,GI50,SK-MEL-5,5.81 µM
same,CC50,SK-MEL-5,20.5 µM
same,GI50,UACC-257,87.2 µM
same,CC50,UACC-257,> 100 µM
same,GI50,IGROV1,5.76 µM
same,CC50,IGROV1,> 100 µM
same,GI50,OVCAR-4,74.6 µM
same,CC50,OVCAR-4,> 100 µM
same,GI50,OVCAR-5,> 100 µM
same,CC50,OVCAR-5,> 100 µM
same,GI50,OVCAR-8,61.4 µM
same,CC50,OVCAR-8,> 100 µM
same,GI50,786-0,7.88 µM
same,CC50,786-0,> 100 µM
same,GI50,ACHN,> 100 µM
same,CC50,ACHN,> 100 µM
same,GI50,SN12C,7.83 µM
same,CC50,SN12C,> 100 µM
same,GI50,UO-31,> 100 µM
same,CC50,UO-31,> 100 µM
same,GI50,BT-549,8.82 µM
same,CC50,BT-549,> 100 µM
COc1ccc(/C=C/C(=O)c2ccc(S(=O)(=O)NCCNc3nc(Nc4ccc(F)cc4)nc(N(C)C)n3)cc2)cc1 [24c],activity at 10 µM,60 cancer cell lines,24.7%
same,GI50,CCRF-CEM,4.09 µM
same,CC50,CCRF-CEM,> 100 µM
same,GI50,HL-60(TB),3.6 µM
same,CC50,HL-60(TB),> 100 µM
same,GI50,RPMI-8226,2.96 µM
same,CC50,RPMI-8226,> 100 µM
same,GI50,A549/ATCC,6.54 µM
same,CC50,A549/ATCC,> 100 µM
same,GI50,EKVX,4.12 µM
same,CC50,EKVX,> 100 µM
same,GI50,HOP-62,17.1 µM
same,CC50,HOP-62,> 100 µM
same,GI50,NCI-H226,3.8 µM
same,CC50,NCI-H226,> 100 µM
same,GI50,NCI-H23,10.4 µM
same,CC50,NCI-H23,> 100 µM
same,GI50,NCI-H322M,10.2 µM
same,CC50,NCI-H322M,> 100 µM
same,GI50,NCI-H460,4.11 µM
same,CC50,NCI-H460,> 100 µM
same,GI50,COLO 205,3.46 µM
same,CC50,COLO 205,45.7 µM
same,GI50,HCT-116,1.86 µM
same,CC50,HCT-116,7.07 µM
same,GI50,HCT-15,2.71 µM
same,CC50,HCT-15,27.4 µM
same,GI50,KM12,4.01 µM
same,CC50,KM12,72 µM
same,GI50,SW-620,5.42 µM
same,CC50,SW-620,52.3 µM
same,GI50,SF-268,4.43 µM
same,CC50,SF-268,> 100 µM
same,GI50,SF-295,5.05 µM
same,CC50,SF-295,62.4 µM
same,GI50,SNB-19,5.58 µM
same,CC50,SNB-19,> 100 µM
same,GI50,SNB-75,3.57 µM
same,CC50,SNB-75,> 100 µM
same,GI50,U251,6.7 µM
same,CC50,U251,55.3 µM
same,GI50,MALME-3M,10.6 µM
same,CC50,MALME-3M,> 100 µM
same,GI50,M14,4.27 µM
same,CC50,M14,99.6 µM
same,GI50,MDA-MB-435,5.47 µM
same,CC50,MDA-MB-435,79.6 µM
same,GI50,SK-MEL-2,8.1 µM
same,CC50,SK-MEL-2,53.4 µM
same,GI50,SK-MEL-28,5.23 µM
same,CC50,SK-MEL-28,47.3 µM
same,GI50,SK-MEL-5,3.5 µM
same,CC50,SK-MEL-5,36.4 µM
same,GI50,UACC-257,13.3 µM
same,CC50,UACC-257,> 100 µM
same,GI50,IGROV1,10.8 µM
same,CC50,IGROV1,> 100 µM
same,GI50,OVCAR-4,4.12 µM
same,CC50,OVCAR-4,> 100 µM
same,GI50,OVCAR-5,8.43 µM
same,CC50,OVCAR-5,> 100 µM
same,GI50,OVCAR-8,9.51 µM
same,CC50,OVCAR-8,> 100 µM
same,GI50,786-0,6.33 µM
same,CC50,786-0,> 100 µM
same,GI50,ACHN,3.4 µM
same,CC50,ACHN,> 100 µM
same,GI50,SN12C,3.6 µM
same,CC50,SN12C,44.5 µM
same,GI50,UO-31,3.78 µM
same,CC50,UO-31,> 100 µM
same,GI50,BT-549,13.2 µM
same,CC50,BT-549,56.7 µM
